Values joined by “and” are separate entries in the source; they are usually repeats but may differ in a detail not shown here. Equal entries are not always repeated. Where two headings read alike, the source gives them in different places.

From patent US7524503B2, “Human cytomegalovirus (HCMV) cytotoxic T cell epitopes, polyepitopes compositions comprising same and diagnostic and prophylactic and therapeutic uses therefor” (priority 2001, dated 2009) come the findings set out here.

The target of one assay is T1, HLA A3 (Homo sapiens, UniProt P04439).
T1 construct: EGFP; expressed in transfected cells; host or cells: T2 cells
T1 sequence (P04439 25-365): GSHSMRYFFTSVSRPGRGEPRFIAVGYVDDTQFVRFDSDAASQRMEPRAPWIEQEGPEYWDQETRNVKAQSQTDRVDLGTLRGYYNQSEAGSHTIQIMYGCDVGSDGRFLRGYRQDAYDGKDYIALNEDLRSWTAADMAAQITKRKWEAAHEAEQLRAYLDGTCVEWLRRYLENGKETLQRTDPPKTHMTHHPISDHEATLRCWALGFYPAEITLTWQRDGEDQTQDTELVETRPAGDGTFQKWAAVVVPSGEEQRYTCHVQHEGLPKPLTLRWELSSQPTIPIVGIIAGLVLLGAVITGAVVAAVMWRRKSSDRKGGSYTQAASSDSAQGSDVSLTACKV
T1 sequence (P61769 21-119, further chain): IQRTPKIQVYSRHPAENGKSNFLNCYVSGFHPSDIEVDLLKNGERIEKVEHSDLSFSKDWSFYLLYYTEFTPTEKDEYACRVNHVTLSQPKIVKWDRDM
The experiment in a line: MHC stabilization assay on T2 cells. The class given is cell-based. The following applies: HLA A3 on transfected T2 cells; relative increase vs no peptide at 26° C.

Another assay deals with CD4+ T cells. Nature of the assay: CD4+/CD8+ analysis of 20-mer peptides (intracellular IFN-γ staining or depletion ELISPOT). It counts as cell-based, human. On the procedure: (§1) To determine whether a particular 20-mer peptide contained either a CD4^+- or CD8^+-restricted epitope, or both, CD4^+/CD8^+ cell depletion ELISPOT assays were performed on PBMC from healthy virus carriers. For any one experiment, three populations of cells were used: a) CD8^+-depleted PBMC, b) CD4^+-depleted PBMC, and c) non-depleted PBMC. These populations of cells were tested concurrently with the same peptides in a conventional ELISPOT assay as described herein above. DYNABEADS M-450 (Dynal, Oslo, Norway) that bound specifically to CD4^+- or CD8^+ cells were used to perform the depletion essentially according to manufacturers instructions. Beads were washed twice in cold PBS supplemented with 2% FCS using magnetic isolation. The requisite number of cells was resuspended in cold PBS supplemented with 2% FCS, added to the beads and then incubated at 4° C., in the dark, for 30 mins (CD8^+ beads) or 60 mins (CD4^+ beads). Populations were depleted of CD4^+ or CD8^+ cells using magnetic separation. After depletion, the non-attached cells were removed and washed once in growth medium, counted and used in conventional ELISPOT assay. Depleted cells were used at 1.7×10^5 cells per well and the non-depleted population was used at the standard 2.5×10^5 cells per well. After the depletion step, each respective cell population was assessed for the purity of CD4^+ and CD8^+ T cells by three-colour flow cytometry. Samples of depleted cell populations were stained with anti-CD3 antibody directly conjugated to fluorescein isothiocyanate (FITC), anti-CD4 antibody conjugated with phycoerythrin (PE) fluorochrome, and anti-CD8 antibody conjugated with Tricolor fluorochrome (described below). The percent of CD3^+/CD4^+ cells present within the CD8^+-depleted population and the percent of CD3^+/CD8^+ cells present within the CD4^+-depleted populations were assessed on FACSCalibur cytometer (Becton Dickinson). The purity of each population was greater than 90% and the results from the ELISPOT assays are expressed as the percentage of CD4+ or CD8^+ cells within the depleted populations that responded toward each peptide by producing IFN-γ.
(§2) PBMCs were incubated at 37° C. in RPMI+10% FCS with and without 10 μg/ml peptides for 6 hours. Golgiplug™ (Pharmingen, San Diego, Calif., USA) was added to the samples according to manufacturer's instructions during the second hour of incubation and cells activated with 25 ng/ml phorbol 12-myristidate 13-acetate (PMA; Sigma-Aldrich Co, St. Louis Mo.) and 1 μg/ml iomomycin (Sigma) acted as a positive control. Following the incubation, 1×10^6 cells/sample were washed and resuspended in staining buffer consisting of PBS with GolgiPlug™, 3% FCS and sodium azide. Cells were then stained with FITC conjugated anti-CD3-FITC (UCHT1, Immunotech, Marseille, France), and either Tricolor (TRI) conjugated anti-CD4 (S3.5, Caltag, Burlingame, Calif.) or anti-CD8 (3B5, Caltag) for 30 minutes, 4° C. in the dark. The cells were fixed for 20 min at 4° C. with Cytofix/Cytoperm™ (BD Biosciences) and resuspended in Perm/Wash™ permeabilization buffer (BD Biosciences) according to manufacturers protocol. Fixed cells were stained with phycoerythrin (PE) conjugated anti-human IFN-γ (B27, Pharmingen) for 30 min at 4° C. in the dark. As a negative control, cells were stained with appropriate isotype matched control antibodies. Cells were washed twice in permeabilization buffer and resuspended in staining buffer before analysis by three-colour flow cytometry on a FACSCalibur cytometer (BD Biosciences). All data analysis was carried out using FlowJo software (Tree Star, Inc. San Carlos, CA).
(§3) When using 20-mer peptides to map epitopes by ELISPOT, it is possible that some responses may be MHC class-II restricted, and not necessarily restricted through HLA class I alleles. It was evident throughout this study that some epitopes identified using ELISPOT could not be confirmed using cytotoxicity analysis. […]

Another assay has as its system CD8+ T cells. Described as above. The class given is cell-based, human. On the procedure:
as §1, §2, §3

Assay [1] relates to PBMC from healthy HCMV seropositive donors. The experiment in a line: IFN-γ ELISPOT assay. It counts as cell-based, human. As to conditions: peptide 10 μg/ml. The procedure, abridged:
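PBMC from healthy HCMV-seropositive donors (2.5×10^5 cells/well) were stimulated 18 h at 37° C with individual synthetic HCMV peptides (10 μg/ml) on anti-IFN-γ-coated nitrocellulose. IFN-γ spots were developed with biotinylated antibody and streptavidin-alkaline phosphatase and counted automatically. Counts were averaged over 3 wells, and no-peptide wells were subtracted.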

The subject of assay [2] is peptide-sensitized autologous PHA blasts or LCLs. The class given is cell-based, human. Details: key to CTL response: Y: Yes; ND: Not detected.
Where [3] appears, read: overlapping 20mer peptides, Table 4.

For the sequence “AIIGIYLLY (human cytomegalovirus gH CTL epitope peptide)”, the “MSE (MHC stabilization efficiency)” value in the assay with HLA A3 was “NT/+++ (+++ = 200-300%)”.
The same measure, in the same setting: the result for “ALALFAAAR (human cytomegalovirus gH CTL epitope peptide)” reads “− (− = 0-50%)”; that for “ALTVSEHVSY (human cytomegalovirus gH CTL epitope peptide)”, “++ (++ = 100-199%)”.
On to “ELLAGGRVF (human cytomegalovirus pp28 CTL epitope peptide)”, for which, in the assay with HLA A3, the “MSE (MHC stabilization efficiency)” value is reported as “− (− = 0-50%)”.
Same read-out and setting: the result for “ELLGRLNVY (human cytomegalovirus pp28 CTL epitope peptide)” reads “− (− = 0-50%)”; that for “ELYLMGSLVH (human cytomegalovirus gH CTL epitope peptide)”, “− (− = 0-50%)”.
Regarding IIKPGKISHIMLDVAFTSHE, the “Responding cells (% CD4)” value with CD4+ T cells (donor eight) was 0.04%; with CD4+ T cells (donor seven) it was 0.02%. Also, the “Responding cells (% CD8)” value in the assay on CD8+ T cells (donor eight) came out at 0.05%; in the assay with CD8+ T cells (donor seven), 0.03%. For the same sequence, the “ELISPOT Responses (SFC/10^6 PBMC)” value was “JW(370) SFC/10^6 PBMC” in assay [1] (donor eight); 691 SFC/10^6 PBMC in assay [1] (donor epsilon); 177 SFC/10^6 PBMC in assay [1] (donor gamma); “SB(155), SFC/10^6 PBMC” in assay [1] (donor seven). Besides, the CTL response result in assay [2] (setting [3]) is on record as “Y”.
On to IQIIYTRNHEVKSEVDAVRC, for which, in the assay on CD4+ T cells (donor delta), the “Responding cells (% CD4)” value is 0%. In addition, in the assay on CD8+ T cells (donor delta), the “Responding cells (% CD8)” value stood at 0.19%. For the same sequence, the “ELISPOT Responses (SFC/10^6 PBMC)” value in assay [1] (donor delta) is given as 203 SFC/10^6 PBMC; in assay [1] (donor seven), 288 SFC/10^6 PBMC. Besides, the CTL response entry in assay [2] (setting [3]) is reported as “Y”.
Regarding MNGQQIFLEVQAIRETVELR, in the assay on CD4+ T cells (donor two), the “Responding cells (% CD4)” value stood at 0.26%. Also, the “Responding cells (% CD8)” value in the assay with CD8+ T cells (donor two) is 0.48%. The “ELISPOT Responses (SFC/10^6 PBMC)” value came out at 277 SFC/10^6 PBMC in assay [1] (donor alpha) and 2985 SFC/10^6 PBMC in assay [1] (donor two). The CTL response entry in assay [2] (setting [3]) is “Y”.
For the sequence “MQLIPDDYSNTHSTRYVTVK (human cytomegalovirus gB CTL epitope peptide)”, the “Responding cells (% CD4)” value in the assay with CD4+ T cells (donor four) worked out at 0.06%. The “Responding cells (% CD8)” value in the assay with CD8+ T cells (donor four) came to 0.03%. Further, the “ELISPOT Responses (SFC/10^6 PBMC)” value in assay [1] (donor four) is 238 SFC/10^6 PBMC and 302 SFC/10^6 PBMC; in assay [1] (donor seven) it was “SB(157) SFC/10^6 PBMC”. Moreover, the CTL response entry in assay [2] (setting [3]) is on record as “Y”.
With PQYSEHPTFTSQYRIQGKLE, the “Responding cells (% CD4)” value with CD4+ T cells (donor delta) was 0%; in the assay with CD4+ T cells (donor four) it was 0.05%; in the assay with CD4+ T cells (donor fourteen), 1.69%. Further, the “Responding cells (% CD8)” value in the assay with CD8+ T cells (donor delta) is on record as 0.87%; in the assay on CD8+ T cells (donor four), 0%; with CD8+ T cells (donor fourteen), 0.96%. The “ELISPOT Responses (SFC/10^6 PBMC)” value in assay [1] (donor delta) was 980 SFC/10^6 PBMC; in assay [1] (donor four), “MB(413) SFC/10^6 PBMC”; in assay [1] (donor fourteen), 1393 SFC/10^6 PBMC. The CTL response result in assay [2] is reported as “Y”.
Regarding QAIRETVELRQYDPVAALFF, in the assay on CD4+ T cells (donor two), the “Responding cells (% CD4)” value was found to be 0.28%. Further, the “Responding cells (% CD8)” value in the assay on CD8+ T cells (donor two) is 0.33%. For the same sequence, the “ELISPOT Responses (SFC/10^6 PBMC)” value is listed as 102 SFC/10^6 PBMC in assay [1] (donor alpha), 241 SFC/10^6 PBMC in assay [1] (donor seven) and “JD(2593) SFC/10^6 PBMC” in assay [1] (donor two). In addition, in assay [2] (setting [3]), the CTL response entry is given as “Y”.
